The results in this text go back to patent publication US12097189B1, “Pharmaceutical composition for modified release” (ASTELLAS PHARMA INC., priority 2024, dated 2024).

Series [1] is described as follows: Elimination half-life of compound A. The following applies: in vivo; read-out: elimination half-life (T1/2). The source says:
Taking into consideration the results of the clinical trial described above, the present inventors conducted intensive studies to design the formulation by paying attention to the control of a release rate of the drug from a formulation to the extent that the release is not affected by food intake or the like, rather than the addition of release control.

A short description of series [2]: Pharmacokinetics (PK) test of immediate release formulation (capsule formulation) in human: Cmax and heart rate. It is filed as in vivo. As to conditions: healthy subjects; immediate release capsules, 0.1 mg to 340 mg. On the procedure:
An immediate release formulation (capsule formulation) containing compound A was administered to healthy subjects in a fasted state, before 30 min from the intake of a meal, or after 30 min from the meal, and the drug concentration in the plasma was measured. The immediate release formulations (capsule formulations) containing 0.1 mg, 1 mg, 5 mg, 20 mg, and 80 mg of the compound A were used in combinations as needed so that the dose of compound A became 0.1 mg, 1 mg, 3 mg, 10 mg, 30 mg, 100 mg, 160 mg, 240 mg, and 340 mg.

In the case of `Nc1nc(CC(=O)Nc2ccc(CCNC[C@H](O)c3ccccc3)cc2)cs1` [compound A, (R)-2-(2-aminothiazol-4-yl)-4′-[2-[(2-hydroxy-2-phenylethyl)amino]ethyl]acetic acid anilide], in series [1], the half-life lay within 18 to 24 h. Also, the “relation between maximum plasma concentration (Cmax) and increase in heart rate from the base line” value in series [2] is “a positive correlation was observed”.
